Patent US20240000977A1, “METHODS AND KITS FOR DIAGNOSING AND TREATING CANCERS” (Baruch S. Blumberg Institute, priority 2020, published 2024)

How the values were obtained:
[1] = system: H3K36me3-deficient tumor xenografts; conditions: cited from earlier work
DACH1^−/− 3T3 cells = assay: BrdU / propidium iodide flow cytometry of S-phase cells after WEE1 inhibition; assay type: cell-based; conditions: 24 h
Method: (§1) DACH1 deficiency was determined to promote accumulation of non-proliferative S-phase cells by WEE1 kinase inhibitors. DACH1^+/+ and DACH1^−/− 3T3 cells were treated for 24 h with Adavosertib at 10 μM, a small molecule inhibitor of the tyrosine kinase WEE1, or with DMSO, as the control (see FIGS. 18A and 18B). Prior to harvest, the 3T3 cells were pulsed with 20 μM BrdU for 30 min at a temperature of 37° C. to enable detection of cells with active DNA replication. After harvesting the 3T3 cells, the 3T3 cells were stained with propidium iodide (DNA content) and an anti-BrdU antibody (Abcam). […] Representative FACS plots are shown (see FIGS. 19A-19E). […] Data is shown as mean±SEM for 4 separate experiments.

DACH1^+/+ 3T3 cells = assay: as above; assay type: cell-based; conditions: Wt (DACH1^+/+) 3T3 cells, Adavosertib 10 μM, 24 h, 20 μM BrdU pulse 30 min; mean of 4 experiments
Method: as §1

SETD2−/− cells = conditions: cited from earlier work
L1210 leukemia = conditions: murine L1210 leukemia, single agent; cited from earlier work

Compound | effect on tumor xenografts [1] | BrdU incorporation upon inhibition of WEE1 kinase (DACH1^−/− 3T3 cells; 10 μM) | non-proliferating S-phase population (DACH1^−/− 3T3 cells; Adavosertib 10 μM, 20 μM BrdU pulse 30 min, mean of 4 experiments) [%] | non-proliferating S-phase population (DACH1^+/+ 3T3 cells) [%] | sensitivity of cells (SETD2−/− cells) | antileukemic effects, agent given alone (L1210 leukemia)
C=CCn1c(=O)c2cnc(Nc3ccc(N4CCN(C)CC4)cc3)nc2n1-c1cccc(C(C)(C)O)n1 [Adavosertib] | regresses | failed to incorporate the BrdU | 38.3 | 13.8 | hypersensitive | –
IL-12: IL-12 proteins, cytokine used in chemo-immunotherapy | – | – | – | – | – | moderate antileukemic effects
